Paper PMC10794345, “Analysis of vascular disruption in zebrafish embryos as an endpoint to predict developmental toxicity” (Archives of Toxicology, 2023)

Assays:
[1] = test system: zebrafish embryos (wild-type strain OBI/WIK); assay: Lethality of zebrafish embryos at 96 hpf; type: in vivo, zebrafish (D. rerio); conditions: for Mortality (in words): embryos exposed from 24 hpf, compared to exposure from 3 hpf
Method: Fertilized and normally developed embryos were selected according to Kimmel et al. ([1995]) with a dissection microscope (Olympus SZx7-ILLT) at 1 hpf. Depending on experiment, exposure was started within 2–3 h post-fertilization (16–128 cell stages) or at 24 hpf. Exposure was conducted in rectangular 96-well microplates (Clear Polystyrene, flat bottom, Uniplate, Whatman, GE Healthcare) covered by a lid with a test volume of 400 µL of exposure media. For each replicate one embryo per well and 16 wells per concentration were assessed. Experiments were performed with at least two replicates on independent days and breeding.
Concentration–response curves were fitted for lethality, heart rate, morphological features as previously described (Teixidó et al. [2019], [2022]). The assessment of lethality and morphological features was based on the percentage of embryos affected. Therefore, morphological endpoints were dichotomized, i.e. feature metrics were converted to the percentage of embryos deviating from controls. An embryo was considered to deviate when it was outside 1.5-fold of the standard deviation range of the mean of the control group. The control mean was determined by pooling control embryos across all experiments (n = 160) (available at git.ufz.de). For heart rate and angiogenesis (number of ISVs) the analysis was based on normalized values, i.e. for each experiment the values of the treatment were divided by the control value. The experiments were designed to calculate effect concentrations based on modelled curve fits. Different concentrations were used in at least two independent replicates, with means of each replicate based on the exposure of 16 different embryos per concentrations. Effect concentration were only modeled when three conditions were met. (1) The Tukey trend test based on the R package "tukeytrend" (Schaarschmidt et al. [2022]) was deriving a maximum p-value of 0.05. (2) The Akaike information criterion (AIC) for the log-logistic model was lower than the AIC for a linear model with slope 0 (lower p values for the letter would indicate that there is no trend in the data). (3) We calculated effect concentrations only if at least 30% of embryos for that endpoint were affected in at least one exposure concentration of (for normalized data) a reduction or increase by 30% was observed.

[2] = test system: zebrafish embryos (wild-type strain OBI/WIK); assay: Morphological features and heart rate by automated imaging (VAST/FishInspector) at 96 hpf; type: in vivo, zebrafish (D. rerio); conditions: embryos exposed beginning at 3 hpf; not observed when exposure started at 24 hpf
Method: Automated imaging of zebrafish developmental phenotypes was conducted with the VAST BioImager (Union Biometrica, Gees, Belgium (Pardo-Martin et al. [2010]; Pulak [2016])) equipped with a large particle sampler (LP sampler, Union Biometrica). Lateral and dorsoventral images were obtained at 10 µm resolution at 96 hpf. Prior to imaging, all embryos were anesthetized by adding 20 µl tricaine solution ([…] tricaine, TRIS 26 mM, pH 7.5 ± 0.1) to each well of the microplate. Images were processed with an amended version (1.70, available via https://codebase.helmholtz.cloud/ufz/tb3-cite/biotox/FishInspector) of the FishInspector imaging software (Teixidó et al. [2019]). The FishInspector software allows to automatically annotate morphological features including body contour, eye, lower mouth tip, pericard, otoliths, notochord, swimbladder, and yolk and to calculate diverse metrics such as feature length, size, curvature indices, or angle between feature-connecting lines. In contrast to the previously published version, FishInspector 1.70 detects morphological features based on a deep learning approach using the Matlab Neural Network Toolbox and Matlab Image Processing Toolbox (Mathworks, Natick, […]). In addition, metric calculation was included into the software, and meta information such as test compound, exposure window or test concentration was associated to each image using a microplate layout file. To facilitate training of the models, two additional programs were generated in Matlab including FishTrainer 0.9 (for training of semantic segmentation models of structural features) and FishClassificator 0.9 (for training of position classes to be used in automated flipping of images) available via same repository as FishInspector software. For image training, image size was adjusted to 450 × 300 pixel to reduce computing time. This resolution was sufficient to detect the selected features (data not shown). For training of the deep learning models, approximately 3000 previously annotated images (Teixidó et al. [2022]) were used. The automated annotations were corrected by the user in the event that they were not adequately detecting visible structures. User-bias was avoided by a blinded assessment of images.
FishInspector provided a JSON file corresponding to each image file containing the coordinates of all features and the applied smoothing factor. All images and videos used for this publication can be found at the BioImage Archive S-BIAD954 (https://www.ebi.ac.uk/biostudies/bioimages/studies/S-BIAD954). For each image, a csv file was generated containing calculated metrics. The software automatically provides a summary table containing metrics r of individual embryos. […] The analyzed file includes endpoint names based on the FishInspector software. […]

| SMILES | Mortality (in words) [1] | Swim bladder inflation (in words) [2] | LC50 ([1]; 3–96 hpf exposure, ± 95% confidence intervals) |
| --- | --- | --- | --- |
| Cc1cc(C)c(/C=C2\C(=O)Nc3ccccc32)[nH]1 [SU5416] | reduced | impaired swim bladder inflation | – |
| CN(C)c1ccc(C=C2C(=O)Nc3ccccc32)cc1 [SU4312] | no | impaired swim bladder inflation | 2110 ± 220 nM |
| CNC(=O)c1cc(Oc2ccc(NC(=O)Nc3ccc(Cl)c(C(F)(F)F)c3)cc2)ccn1 [Sorafenib] | no | impaired swim bladder inflation | – |
